Values quoted from earlier work, collected in patent publication US7645792B2, “Prodrugs of propofol, compositions and uses thereof” (XenoPort, Inc., priority 2004, dated 2010).

Conditions: rats, oral dosing

For `CC(C)c1cccc(C(C)C)c1O` [propofol, 2,6-diisopropylphenol], the “Administered drug undergoing first pass metabolism” value is listed as “approximately 90%”.
